Reference: patent publication EP0773287A1, “Immortalised embryonic hyppocampal cells and their use” (BAYER AG, priority 1995, dated 1997)
Where two headings read alike, the source gives them in different places.

How the values were obtained:
Type in all cases: cell-based, murine
HNMMCV13.1.F = assay: Ca2+-imaging (Fura-2) of intracellular calcium after application of agonists
Protocol: (§1) Fluorescent Probe: Dynamic changes of intracellular calcium concentration were measured using the Fura-2 fluorescent probe (Roe et al. 1990, Cell Calcium 11:63-73). This fluorescent dye was chosen because of its selectivity, high quantum yield and extinction co-efficient. Fura-2 permeates the living cell as a acetoxymethylester and becomes trapped within the cell after hydrolysis by intracellular esterases. The calcium-sensitive free acid of Fura-2 is able to bind to calcium ions inside the cell. Fura-2 has an excitation maximum at 380 nm and the Fura2/calcium complex peaks at 340 nm. A change in intracellular calcium concentration was calculated by recording fluorescent video images at wavelengths of 340nm and 380nm excitation and 510nm emission and by dividing the grey values of the digitized video images of 380nm from 340nm.
(§2) Loading cells with Fura-2: A stock solution with 2mM Fura-2-acetoxymethylester in dimethylsulfoxide (DMSO) was diluted to 5-10 µM with serum free Minimal Essential Medium (MEM, Gibco) containing 1.5% bovine serum albumin and 5 mM calcium chloride. The cells were incubated in a Falcon 96 well plate for 45-60 minutes at 37°C. Subsequently the cells were washed twice in N-(2-Hydroxyethyl)piperazine-N'-(2-ethanesulfonic acid) (HEPES, 5mM) buffered Tyrode solution (HEPES buffered salt solution containing 130 mM NaCl, 5 mM KCl, 2 mM CaCl2, 1 mM MgCl2, 5mM NaHCO3, 11 mM Glucose).
(§3) Imaging procedure: 100 µl of Tyrode buffer was added to the plate wells and the cells were sequencially exposed to light at 340 nm and 380 nm under a fluorescent microscope (Nikon Diaphot). The exposition time was 100 ms. A series of video images at 3 second intervals was acquired and stored as digitised pictures in the image boards of an image analysis computer (Leica, Quantimet 570). After the acquisition of 8 images the test substances were applied. The grey levels of the cells, which correspond to the fluorescence intensity, were measured in the recorded video images. The ratio was determined by dividing the measured grey levels of the "380 nm images" by the grey levels of the "340 nm images" either from averaged images or from individual cells. For averaged results, the grey levels were measured over the whole images.
(§4) The cells were loaded with Fura 2/AM between day 3 and 7 in culture. A number of agonists were tested for their ability to activate specific receptors on the cell surface which lead to a rise in intracellular calcium. The rise in calcium concentration in the cytoplasm can occur after activation of specific calcium channels in the cell membrane, after activation of neurotransmitter receptors directly coupled to ion channels that are permeable to calcium ions (i.e. NMDA or AMPA type glutamate receptors), or by activation of receptors, which propagate the signal through the activation of specific G-proteins, which regulate the activity of different enzymes in the interior of the cell (Connor, Cell Calcium 14 (1993), 185-200; Crouch and Hendry, Medical Res. Rev. 13 (1993), 105-123). The activation of phospholipase C generates the second messengers diacylglycerol and inositoltriphosphate from phospholipids in the cell membrane. The binding of inositoltriphosphate to receptors localised on internal vesicles which store calcium ions leads to a transient rise in the concentration of calcium ions in the cytoplasm (Berridge, M.J. 1993, Nature 361: 315-325).

HNMMCV11.2.0 = assay: as above
Protocol: as §1, §2, §3, §4

HNMMCV13.1.E = assay: as above
Protocol: as §1, §2, §3, §4

HC e/n XV.B cells = assay: as above
Protocol: as §1, §2, §3, §4

HNMMCV14.1.A [1] = assay: as above
Protocol: as §1, §2, §3, §4

[2] = system: metabotropic glutamate receptor(s) (mGluR) expressed by HNMMCV14.1A cells; assay: Phosphoinositide hydrolysis: accumulation of 3H-inositol phosphates; conditions: for EC50: read-out: EC50 inositolphosphate accumulation
Protocol: Phosphoinositide hydrolysis was determined by measuring the accumulation of ^3H-inositol phosphates. The cells were plated in 48-well plates (Costar) at a density of 10000 cells per well and incubated for 4-5 days at 37°C, 7% CO2. Then the cells were labeled by incubation with 4 µCi of myo-2-^3H-inositol per ml medium (specific activity: […]: Amersham). After 24 h LiCl (10 mM final concentration) was added to the cells for 1 h. Agonists were then added at the concentrations indicated. The incubation was stopped after 1 h by replacing the medium with 200 µl ice-cold methanol. 400 µl of destilled water was added and the sample was directly applied to AG-1X8 ion exchange columns (AG-1X8 resin: BioRad). Free inositol and glycerophosphoryl-inositol were washed away with 16 ml destilled water followed by 10 ml 5 mM disodium-tetraborate, 60 mM sodium formate. Total ^3H-inositol phosphates (IP1, IP2, IP3) were eluted with 7 ml of 100 mM formic acid, 1 M ammonium formate. Radioactivity of the eluted ^3H-inositol phosphates was determined by liquid scintillation counting after addition of 13 ml liquid scintillation cocktail (Ultima Gold: Canberra Packard). Measurements were performed in triplicates for each experimental point. Untreated controls were set as 100% and the other values calculated in relation to this.
The columns were prepared as follows: 1 ml pipet tips were filled with one glass bead (Roth) per tip before adding 500 µl AG-1X8 resin. The resin was compressed with air and 270 µl seasand was applied. Until use they were stored at 4°C.

HC e/n XVB cells = assay: Whole-cell patch-clamp recording of ligand-activated currents; conditions: for ligand-activated currents (electrophysiological recordings): membrane potential clamped to -70mV
Protocol: (§5) Electrophysiological setup: Membrane currents were measured with the patchclamp technique in the whole-cell recording configuration (Hamill et al. 1981, Pfluegers Arch. 391:85-100). Current signals were amplified with conventional electronics (EPC-9 amplifier, HEKA Elektronik GmbH, Lambrecht, Germany), filtered at 10kHz, and sampled at 5 kHz by an interface connected to an IBM AT-compatible computer system, which also served as a stimulus generator.
(§6) Solutions and electrodes: The standard bathing solution contained (in mM): Nacl 150, KCL 5, MgCl2 1.8, HEPES 5, and glucose 10. In some experiments an equimolar amount of NaCl was replaced by 5mM BaCl2. Recording pipettes had resistances about 5MΩ (Hilgenberg, Malsfeld, Germany). The pipettes contained (in mM): KCL 140, CaCl2 0.5, EGTA 5, MgCl2 2, and HEPES 10. The pH was adjusted to 7.4. In some experiments the pipette solution was designed to minimize the contribution of voltage-activated currents. In this case, investigating the ligand-activated currents, the pipette solution contained (in mM): CsCl 140, EGTA 10, and HEPES 10.
(§7) Ligands were dissolved in the extracellular saline solution and applied via an U-tube application system. To record ligand-induced currents, the membrane potential was clamped to -70mV. For measurements of voltage-activated currents, cells were held at -70mV and every second the membrane was stepped through a 50 msec. de- or hyperpolarising test pulse to a potential between -170 and +20 mV.

HNMMCV14.1.A [3] = assay: as above
Protocol: as §5, §6, §7

[4] = HNMMCV13.1.F, concentrations (glutamate 10µM to 10 mM; AMPA, kainic acid, serotonine, dopamine, carbachol up to 1mM; NMDA up to 500µM)
[5] = HC e/n XV.B cells, state of differentiation not stated, up to 1mM
[6] = HNMMCV14.1A cells, agonist 1 h, LiCl 10 mM
[7] = differentiated HC e/n XV.B cells
[8] = 14.1.A, membrane potential clamped to -70mV
[9] = differentiated HC e/n XVB cells, AMPA 100µM, NMDA 1mM, kainate 1mM, glutamate 1mM

## NCCc1ccc(O)c(O)c1 [Dopamine, dopamine]
HNMMCV13.1.F; [4]
  rise in intracellular calcium concentration (result in words): did not lead to a specific signal
HNMMCV11.2.0; HNMMCV11.2.0
  rise in intracellular calcium concentration (result in words): did not lead to a specific signal
HNMMCV13.1.E; HNMMCV13.1.E
  rise in intracellular calcium concentration (result in words): did not lead to a specific signal
HC e/n XV.B cells; [5]
  rise in intracellular calcium concentration (result in words): did not lead to a specific signal
HNMMCV14.1.A [1]; HNMMCV14.1.A
  rise in intracellular calcium concentration (result in words): did not lead to a specific signal

## N#Cc1cc2[nH]c(=O)c(=O)[nH]c2cc1[N+](=O)[O-] [CNQX, 6-nitro-7-cyanochinoxalin-2,3-dione]
HNMMCV13.1.F; glutamate 100µM, CNQX 100µM, cells not given, Table 5 gives 13.1.F
  antagonism of the calcium signals recorded after application of glutamate: not antagonised

## C[N+](C)(C)CCOC(N)=O [Carbachol]
HC e/n XV.B cells; [5]
  rise in intracellular calcium concentration (result in words): reproducible signal

## N[C@@H](Cn1oc(=O)[nH]c1=O)C(=O)O [Quisqualate, quisqualate]
[2]; HNMMCV14.1A cells
  effect on inositolphosphate accumulation (result in words): concentration dependent increase
  maximum response of inositolphosphate accumulation compared with glutamate: slightly weaker
[2]; [6]
  EC50: 0.02 µM

## L-carboxycyclopropylglycin [L-CCG 1]
HNMMCV13.1.F; [4]
  rise in intracellular calcium concentration (result in words): strong
HNMMCV11.2.0; HNMMCV11.2.0
  rise in intracellular calcium concentration (result in words): strong
HNMMCV13.1.E; HNMMCV13.1.E
  rise in intracellular calcium concentration (result in words): strong
HC e/n XV.B cells; [7]
  rise in intracellular calcium concentration (result in words): weak signals
HNMMCV14.1.A [1]; HNMMCV14.1.A
  rise in intracellular calcium concentration (result in words): strong

## N[C@@]1(C(=O)O)CC[C@@H](C(=O)O)C1 [t-ACPD, 1S3R-aminocyclopentane-1,3-dicarboxylate]
[2]; HNMMCV14.1A cells
  effect on inositolphosphate accumulation (result in words): concentration dependent increase
  maximum response of inositolphosphate accumulation compared with glutamate: slightly weaker
[2]; [6]
  EC50: 20 µM
HNMMCV13.1.F; [4]
  rise in intracellular calcium concentration (result in words): strong
HNMMCV11.2.0; HNMMCV11.2.0
  rise in intracellular calcium concentration (result in words): strong
HNMMCV13.1.E; HNMMCV13.1.E
  rise in intracellular calcium concentration (result in words): strong
HC e/n XV.B cells; [7]
  rise in intracellular calcium concentration (result in words): weak signals
HNMMCV14.1.A [1]; HNMMCV14.1.A
  rise in intracellular calcium concentration (result in words): strong

## CN[C@H](CC(=O)O)C(=O)O [NMDA, N-methyl-D-aspartate]
HC e/n XVB cells; XV. B/ - EGF
  ligand-activated currents (electrophysiological recordings): ++ (++: 30-70% positive cells)

## C=C(C)[C@H]1CN[C@H](C(=O)O)[C@H]1CC(=O)O [Kainate, kainic acid]
HNMMCV13.1.F
  rise in intracellular calcium concentration (result in words): did not result in a transient rise
  transient calcium currents after the application of agonists and antagonists (Calcium - Imaging): -
HNMMCV11.2.0
  rise in intracellular calcium concentration (result in words): did not result in a transient rise
  transient calcium currents after the application of agonists and antagonists (Calcium - Imaging): -
HNMMCV13.1.E
  rise in intracellular calcium concentration (result in words): did not result in a transient rise
  transient calcium currents after the application of agonists and antagonists (Calcium - Imaging): -
HC e/n XV.B cells
  rise in intracellular calcium concentration (result in words): reproducible calcium signal
HNMMCV14.1.A [1]
  rise in intracellular calcium concentration (result in words): did not result in a transient rise
  transient calcium currents after the application of agonists and antagonists (Calcium - Imaging): -
HC e/n XVB cells
  ligand-induced inward currents (result in words): evoked responses
HNMMCV14.1.A [3]
  ligand-activated currents (electrophysiological recordings): + / -

## NCCc1c[nH]c2ccc(O)cc12 [Serotonine]
HNMMCV13.1.F; [4]
  rise in intracellular calcium concentration (result in words): did not lead to a specific signal
HNMMCV11.2.0; HNMMCV11.2.0
  rise in intracellular calcium concentration (result in words): did not lead to a specific signal
HNMMCV13.1.E; HNMMCV13.1.E
  rise in intracellular calcium concentration (result in words): did not lead to a specific signal
HC e/n XV.B cells; [5]
  rise in intracellular calcium concentration (result in words): did not lead to a specific signal
HNMMCV14.1.A [1]; HNMMCV14.1.A
  rise in intracellular calcium concentration (result in words): did not lead to a specific signal

## CC(=O)OCC[N+](C)(C)C [Acetylcholine, acetylcholine]
HC e/n XVB cells; XV. B/ - EGF
  ligand-activated currents (electrophysiological recordings): -
HNMMCV14.1.A [3]; [8]
  ligand-activated currents (electrophysiological recordings): + (+: 10-30% positive cells)

## NCc1cc(=O)[nH]o1 [muscimol]
HC e/n XVB cells; HC e/n XVB cells
  effect on the GABA-response: mimicked

## CN1CCc2cc3c(cc2[C@H]1[C@@H]1OC(=O)c2c1ccc1c2OCO1)OCO3 [bicuculline]
HC e/n XVB cells
  effect on the GABA-response: blocked

## NC(C(=O)O)c1cc(O)no1 (stereo not shown) [ibotenate]
[2]
  effect on inositolphosphate accumulation (result in words): concentration dependent increase
  maximum response of inositolphosphate accumulation compared with glutamate: slightly weaker
  EC50: 5 µM

## NCCCC(=O)O [GABA]
HC e/n XVB cells; XV. B/ - EGF
  ligand-activated currents (electrophysiological recordings): +++ (+++: 70-100% positive cells)
HC e/n XVB cells; XV. B
  ligand-activated currents (electrophysiological recordings): + (+: 10-30% positive cells)
HC e/n XVB cells; [9]
  ligand-induced inward currents (result in words): prominent resonses
HNMMCV14.1.A [3]; [8]
  ligand-activated currents (electrophysiological recordings): ++ (++: 30-70% positive cells)

## Cc1onc(O)c1CC(N)C(=O)O (stereo not shown) [AMPA, ∝-amino-3-hydroxy-5-methyl-4-isoxazol-propionic acid]
HNMMCV13.1.F; [4]
  rise in intracellular calcium concentration (result in words): did not result in a transient rise
HNMMCV11.2.0; HNMMCV11.2.0
  rise in intracellular calcium concentration (result in words): did not result in a transient rise
HNMMCV13.1.E; HNMMCV13.1.E
  rise in intracellular calcium concentration (result in words): did not result in a transient rise
HC e/n XV.B cells; undifferentiated HC e/n XV.B cells
  rise in intracellular calcium concentration (result in words): did not result in a transient rise
HNMMCV14.1.A [1]; HNMMCV14.1.A
  rise in intracellular calcium concentration (result in words): did not result in a transient rise
HC e/n XVB cells; XV. B/ - EGF
  ligand-activated currents (electrophysiological recordings): + (+: 10-30% positive cells)
HC e/n XVB cells; [9]
  ligand-induced inward currents (result in words): evoked responses
